Tests used:
Test in all cases: Post-emergence application in field trials, herbicidal activity (damage scale 0 to 100%)
Type in all cases: in vivo
Hordeum vulgare (HORVW) = details: HORVW, growth stage 23-29, height 20-25 cm, A-1 18 g ai/ha
Outline: (§1)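 Field sites with natural or seeded weeds were sprayed post-emergence via flat fan nozzles in 200 l/ha water plus 0.25 v/v % MSO adjuvant, solo or mixed with pyroxasulfone and other partners. Damage was scored 0–100% versus untreated plants at indicated DAT. Colby expected values were used to judge synergy.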

[1] = system: Lolium multiflorum (LOLMU)
Outline: as §1

[2] = system: Setaria verticillata (SETVE)
Outline: as §1

[3] = system: Echinochloa crus-galli (ECHCG)
Experimental: In the examples below, using the method of S. R. Colby (1967) “Calculating synergistic and antagonistic responses of herbicide combinations”, Weeds 15, p. 22ff., the value E, which is expected if the activity of the individual active compounds is only additive, was calculated:
[formula] • wherein • X=percent activity using active herbicide A at an application rate a; • Y=percent activity using active herbicide B (e.g. pyroxasulfone) at an application rate b; • E=expected activity (in %) by A+B at application rates a+b.
If the value found experimentally is higher than the value E calculated according to Colby, a synergistic effect is present.
On field test sites, natural weed infestation or seeded weeds were treated post-emergence of the weeds.
In the field trials, the weeds were treated as indicated below.
In the following experiments, the herbicidal activity for the individual herbicidal compositions (solo and mixture applications) was assessed at the indicated days after treatment (DAT). The assessments for the damage on undesired weeds caused by the composition was carried out using a scale from 0 to 100%, compared to the untreated control plants. Here, 0 means no damage and 100 means complete destruction of the plants.
Herbicide A-1 (50 g/l) and pyroxasulfone (85% WG) were, together with addition of 0.5% MSO (methylated seed oil) as adjuvant, formulated in water as distribution medium (water volume 200 l/ha) and sprayed with commercial flat fan nozzles.

With `CCOC(=O)COc1ccccc1Oc1nc(-n2c(=O)cc(C(F)(F)F)n(C)c2=O)c(F)cc1Cl` [A-1, ethyl 2-[2-[[3-chloro-5-fluoro-6-[3-methyl-2,6-dioxo-4-(trifluoromethyl)pyrimidin-1-yl]-2-pyridyl]oxy]phenoxy]acetate] the “% Herbicidal activity” value (Hordeum vulgare (HORVW); 7 DAT, Table 4.2) was 70%, the “% Herbicidal activity” value (Hordeum vulgare (HORVW); 21 DAT, Table 4.4) was 70% and the “% Herbicidal activity” value (Hordeum vulgare (HORVW); 28 DAT, Table 4.5) was 70%. For the same compound, the “% Herbicidal activity” value ([1]; 7 DAT, stage 22-25, height 20-25 cm, g ai/ha A-1 12.5, B 70, C-12 252) was 60%, the “% Herbicidal activity” value ([1]; 7 DAT, stage 22-25, height 20-25 cm, g ai/ha A-1 18, B 70, C-12 252) was 60% and the “% Herbicidal activity” value ([1]; 7 DAT, stage 22-25, height 20-25 cm, g ai/ha A-1 18, B 90, C-12 252) was 60%. For the same compound, the “% Herbicidal activity” value ([1]; 21 DAT, stage 22-25, height 20-25 cm, g ai/ha A-1 12.5, B 70, C-12 252) was 40%, the “% Herbicidal activity” value ([1]; 21 DAT, stage 22-25, height 20-25 cm, g ai/ha A-1 18, B 70, C-12 252) was 40% and the “% Herbicidal activity” value ([1]; 21 DAT, stage 22-25, height 20-25 cm, g ai/ha A-1 18, B 90, C-12 252) was 40%. The “% Herbicidal activity” value ([1]; 28 DAT, stage 22-25, height 20-25 cm, g ai/ha A-1 12.5, B 70, C-12 252) was 40%, the “% Herbicidal activity” value ([1]; 28 DAT, stage 22-25, height 20-25 cm, g ai/ha A-1 18, B 70, C-12 252) was 40% and the “% Herbicidal activity” value ([1]; 28 DAT, stage 22-25, height 20-25 cm, g ai/ha A-1 18, B 90, C-12 252) was 40%. The “% Herbicidal activity” value ([1]; LOLMU, growth stage 22-25, height 20-25 cm, A-1 18 g ai/ha, 7 DAT, Table 4.2) was 60%, the “% Herbicidal activity” value ([1]; LOLMU, growth stage 22-25, height 20-25 cm, A-1 18 g ai/ha, 21 DAT, Table 4.4) was 60% and the “% Herbicidal activity” value ([2]; 7 DAT, stage 21-23, height 8-16 cm, g ai/ha A-1 18, B 70, C-8 840) was 75%. The “% Herbicidal activity” value ([2]; 7 DAT, stage 21-23, height 8-16 cm, g ai/ha A-1 18, B 70, C-12 252) was 70%, the “% Herbicidal activity” value ([2]; 7 DAT, stage 21-23, height 8-16 cm, g ai/ha A-1 18, B 90, C-4 12.5) was 80% and the “% Herbicidal activity” value ([2]; 7 DAT, stage 21-23, height 8-16 cm, g ai/ha A-1 18, B 90, C-8 840) was 75%. The “% Herbicidal activity” value ([2]; 7 DAT, stage 21-23, height 8-16 cm, g ai/ha A-1 18, B 90, C-12 252) was 70%, the “% Herbicidal activity” value ([2]; 21 DAT, stage 21-23, height 8-16 cm, g ai/ha A-1 18, B 90, C-12 252) was 65% and the “% Herbicidal activity” value ([2]; 42 DAT, stage 21-23, height 8-16 cm, g ai/ha A-1 12.5, B 70) was 50%. The “% Herbicidal activity” value ([2]; 42 DAT, stage 21-23, height 8-16 cm, g ai/ha A-1 12.5, B 70, C-12 252) was 50%, the “% Herbicidal activity” value ([2]; 42 DAT, stage 21-23, height 8-16 cm, g ai/ha A-1 18, B 70) was 70% and the “% Herbicidal activity” value ([2]; 42 DAT, stage 21-23, height 8-16 cm, g ai/ha A-1 18, B 90, C-12 252) was 50%. For the same compound, the “% Herbicidal activity” value ([2]; SETVE, growth stage 21-23, height 8-16 cm, A-1 12.5 g ai/ha, 7 DAT, Table 4.1) was 75%, the “% Herbicidal activity” value ([2]; SETVE, growth stage 21-23, height 8-16 cm, A-1 12.5 g ai/ha, 21 DAT, Table 4.3) was 70% and the “% Herbicidal activity” value ([2]; SETVE, growth stage 21-23, height 8-16 cm, A-1 18 g ai/ha, 7 DAT, Table 4.1) was 75%. For the same compound, the “% Herbicidal activity” value ([2]; SETVE, growth stage 21-23, height 8-16 cm, A-1 18 g ai/ha, 21 DAT, Table 4.3) was 75%, the “% Herbicidal activity” value ([2]; Table 8.1, 7 DAT, stage 21-23, height 8-16 cm, g ai/ha A-1 18, B 70, C-12 1066) was 75% and the “% Herbicidal activity” value ([2]; Table 8.2, 21 DAT, stage 21-23, height 8-16 cm, g ai/ha A-1 12.5, B 70, C-12 1066) was 70%. The “% Herbicidal activity” value ([2]; Table 8.4, 42 DAT, stage 21-23, height 8-16 cm, g ai/ha A-1 12.5, B 70, C-12 1066) was 60%, the “% Herbicidal activity” value ([3]; 7 DAT, stage 23-30, height 15-20 cm, g ai/ha A-1 12.5, B 70, C-12 252) was 30% and the “% Herbicidal activity” value ([3]; 21 DAT, stage 23-30, height 15-20 cm, g ai/ha A-1 12.5, B 70, C-12 252) was 30%. The “% Herbicidal activity” value ([3]; 28 DAT, stage 23-30, height 15-20 cm, g ai/ha A-1 12.5, B 70, C-12 252) was 30%, the “% Herbicidal activity” value ([3]; ECHCG, height 20-25 cm, A-1 25 g ai/ha, 21 DAT, Table 2.3) was 60% and the “% Herbicidal activity” value ([3]; Table 8.2, 21 DAT, stage 23-30, height 15-20 cm, g ai/ha A-1 18, B 70, C-12 1066) was 30%. The “% Herbicidal activity” value ([3]; Table 8.2, 21 DAT, stage 23-30, height 15-20 cm, g ai/ha A-1 18, B 90, C-12 1066) was 30%, the “% Herbicidal activity” value ([3]; Table 8.3, 28 DAT, stage 23-30, height 15-20 cm, g ai/ha A-1 18, B 70, C-12 1066) was 30% and the “% Herbicidal activity” value ([3]; Table 8.3, 28 DAT, stage 23-30, height 15-20 cm, g ai/ha A-1 18, B 90, C-12 1066) was 30%.

Source: patent US12690589B2, “Herbicidal compositions comprising pyroxasulfone” (BASF SE, priority 2024, dated 2026)
